Assay results taken from patent publication US4882137A, “Coated veterinary implants” (priority 1986, dated 1989).

Tests used:
ewes = details: in vivo; cited from earlier work
Maiden Merino ewes = details: in vivo

superovulation (Maiden Merino ewes): does not induce superovulation
SMILES: COc1ccc2[nH]cc(CCNC(C)=O)c2c1 [Melatonin, N-acetyl 5-methoxy tryptamine]
basal prolactin levels (ewes): depressed
breeding season (ewes): advanced
